Measured values as given in US9687467B2, “Diagnosis and treatment of taxane-resistant cancers” (Children's Medical Center Corporation, priority 2011, dated 2017).

Tests used:
T824.1 cell line = experiment: MTT cell viability assay on in vivo established paclitaxel-sensitive cell line; format: cell-based; conditions: paclitaxel-sensitive cells transfected with miR-135a mimic
Description: (FIG. 7A). The parental A549 cells, a cell line that became refractory during in vivo treatment with paclitaxel (T20.2 round 1) and the same cell line established after yet another round of in vivo paclitaxel treatment (T20.2 reinjection) were treated with paclitaxel and cell viability was assessed using the MTT assay. Represented are average LC50±s.e.m. determined by MTT assay for parental A549 cells (white boxes), **P<0.001, *P<0.05 as determined by Wilcoxon's rank sum test for T20.2 round 1 cells (hatched boxes) and for T20.2 re-injection cells (filled boxes). (FIG. 7B) The expression of miR-135a was examined in these cells by qRT-PCR. *P<0.05 as determined by Wilcoxon's rank sum test. (FIG. 7C) The expression of miR-135a was examined in the cell lines established in vivo. The correlation between paclitaxel response and miR-135a expression was calculated using the Spearman's rank test. […] Subsequently, cells were treated with the indicated concentrations of paclitaxel and cell viability was assessed using the MTT assay. […]
(§1) Cell growth inhibition was determined by a 3-(4,5-dimethylthiazol-2-yl)-2,5-diphenyltetrazolium (MTT) bromide assay. […] Absorbance was determined using a 96-well SpectraMax plate reader (Molecular Devices, Sunnyvale, Calif.) at 560 nm and 650 nm (background). […]

APC 3′-UTR = experiment: Luciferase reporter fused to APC 3'-UTR; format: cell-based, human; conditions: 30 nM miR-135a mimic
Text: FIGS. 3A-3E are a series of bar graphs showing that miR-135a modulates APC expression in paclitaxel-resistant cancer cells. MES-SA (FIG. 3A) or A549 (FIG. 3B) cells were transfected with a luciferase reporter construct fused to APC 3′-UTR or a control luciferase reporter vector with a random 3′-UTR (random UTR). Subsequently, cells were cotransfected with either an miR-135a mimic or a non-targeting miRNA control (control miRNA). Values are shown as the percent of luciferase expression compared with the control. *P<0.01 as determined by Wilcoxon's rank sum test. FIG. 3C: Endogenous APC mRNA expression was quantified by RT-PCR analysis in A549, A549^TR, MES-SA and MES-SA^DX5 cells. Bars represent mean and s.e.m. from duplicate experiments. NS: not significant, **P<0.001 as determined by Wilcoxon's rank sum test. In addition, APC protein expression was examined by western blotting (bottom panel). […]
Double-stranded RNA oligos representing a mature sequence that mimics endogenous miR-135a, anti-miR-135a designed to inhibit endogenous miR-135a, and anti-miR negative control were all obtained from Ambion™ and were transfected into cell lines at ˜50% confluence at 30 nM concentration with siLentFect (Bio-Rad™). […] The next day, luciferase activity was measured using the Dual-Glo® Luciferase assay system (Promega™, Madison, Wis.). […]

MES-SA cells = experiment: MTT cell viability assay, paclitaxel response; format: cell-based, human; conditions: after transfection with miR-135a mimic, 100 nM paclitaxel
Description: (§2) The paclitaxel-resistant cell lines MES-SA^DX5 and A549^TR were transfected with a scrambled non-targeting miRNA (control) and an miR-135a mimic (mimic), respectively. Cells were subsequently treated with 100 nM paclitaxel and cell viability was assessed using the MTT assay (FIGS. 2A, 2B). The percentage of apoptotic cells was assessed by Annexin V-staining and FACS analysis (FIGS. 2C, 2D). Values are presented as percent cell survival in paclitaxel-treated cells relative to untreated cells. *P<0.05, **P<0.001 as determined by Wilcoxon's rank sum test.
FIGS. 4A-4E are a series of micrographs and line graphs showing that miR-135a-mediated APC suppression contributes to paclitaxel resistance. MES-SA and A549 cells were mock-transfected (mock), transfected with a scrambled siRNA (siControl) or with siRNA directed against APC (siAPC). […] Transfected A549 (FIG. 4B) and MES-SA (FIG. 4C) cells were treated with paclitaxel and viability was assessed using the MTT assay. […] (FIG. 4E) Both A549-shCON and -shAPC cells were treated with paclitaxel and cell viability was measured using the MTT assay. […]
as §1

A549 cells = experiment: Annexin V staining and FACS analysis of paclitaxel-induced apoptosis; format: cell-based, human; conditions: transfection with miR-135a mimic, 100 nM paclitaxel; P<0.001
Description: as §2
Annexin V/7-amino-actinomycin D labeling was performed according to the manufacturer's instructions (BD Pharmingen™, San Diego, Calif., USA, 559 763) and samples were analyzed by flow cytometry. Briefly, cells were treated for 48-72 h with either vehicle or 100 nM paclitaxel. Cells were trypsinized and washed with phosphate-buffered saline before resuspending in assay binding buffer. Annexin V and 7-amino-actinomycin labeling was performed at room temperature for 15 min before analysis by flow cytometry (BD FACScan™, San Jose, Calif., USA).

What does the source list for “miR-135a mimic: double-stranded RNA oligos representing a mature sequence that mimics endogenous miR-135a, from Ambion (sense GTATTGGGCGCCTGGTCACC; antisense CGGGAAGATGGTGATGG; listed as DNA, chemistry not given here)”?
paclitaxel-induced cytotoxicity (T824.1 cell line): suppressed paclitaxel-induced cytotoxicity; targeting of APC 3' untranslated region (luciferase expression) (APC 3′-UTR; A549 cells): targeted the 3′ untranslated region of APC; targeting of APC 3' untranslated region (luciferase expression) (APC 3′-UTR; MES-SA cells, P=0.029): targeted the 3′ untranslated region of APC; cell survival (MES-SA cells): 43.6%; paclitaxel-induced apoptosis (annexin-positive cells) (A549 cells): decreased paclitaxel-induced apoptosis
